Measurements from patent US20020032176A1, “CARCINOGENESIS INHIBITORS” (priority 1996, published 2002).
Where two headings read alike, the source gives them in different places.

How the values were obtained:
papilloma on mouse skin = assay: Two-stage carcinogenesis inhibitory test on mouse skin (DMBA initiation, TPA promotion); type: in vivo, ICR female mice; details: for week after start of promotion on which the first tumor was formed: twice a week, positive control 7th week; for average number of tumors per mouse after 20 weeks: positive control 9.1; for carcinogenesis inhibitory effects (versus positive control tumors per mouse): 85 nmol test substance, after 20 weeks
Experimental: Body hair of one group of 15 ICR female mice (age 6 weeks) on their back were shaved and after 24 hours, applied (100 μg, 390 nmol) of 7,12-dimethylbenz[α]anthracene (hereinafter called “DMBA”) dissolved in acetone (0.1 ml) on their shaved skin of back as an initiation. Since one week later, each group of mice had been treated as follows:
First group: TPA (1 μg, 1.7 nmol) dissolved in acetone (0.1 ml) had been applied for 20 consecutive weeks, twice a week, as a promotion. During this treatment, additional acetone (0.1 ml) was applied on the same part one hour prior to each TPA application. (positive control group). […]
Until the 20th week since the start of a promotion by TPA application, incidence of papilloma on back of mice had been observed once a week. And the rate of mice with papilloma incidence and the average number of papilloma incidence per mouse were evaluated based on the comparison of the positive control group and the second group.
Body hair of one group of 15 ICR female mice (age 6 weeks) on their back were shaved and after 24 hours, applied ([…], 390 nmol) of 7,12-dimethylbenz[α]anthracene (hereinafter called “DMBA”) dissolved in acetone (0.1 ml) on their shaved skin of back as an initiation. Since one week later, each group of mice had been treated as follows:
Second-Fourth group: As the first group, TPA (1 μg, 1.7 nmol) dissolved in acetone (0.1 ml) had been applied for 20 consecutive weeks, twice a week, as a promotion but 85 nmol of test substance (capsanthin group) dissolved in acetone(0.1 ml) (separated by removing methanol extracts solvent), was applied one hour prior to each application instead of additional acetone. Each test substance was for Second group: Capsanthin, Third group: Capsanthin monoester, Fourth group: Capsanthin diester

Raji cells = details: 1000 Mol ratio/TPA (20 ng = 32 pmol/ml); 48 hours
Experimental: Measurement conditions of inactivation of Epstein-Barr virus genome incidence, using the acetone extracts and the hexane extracts, are as follows. PRMI1640 added embryonic serums and antibiotics are used as the culture liquid of Raji cells, virus latent infection-human lymphotropic bulbous cells. Under this culture conditions, the rate of natural incidence of Epstein-Barr virus of early antigens are not more than 0.1%. Raji cells, adjusted at the concentration of 1×10^6 cell/ml is cultured for 48 hours at 37° C. in the above described culture liquid after adding 4 mM of n-butyric acid, 20 ng/ml of TPA and 100 μg/ml of test substance. Then cells which generated Epstein-Barr virus early antigens are detected in the indirect immunofluorescence method using serums from epipharynx cancer patients. The ratio of positive cells calculated against the control without adding testisubstance is regarded as inactivation of virus genome incidence. In addition, the same inactivation were measured as varying the concentration of the test substance to 10, μg/ml and 1 μg/ml.

[1] = test system: Epstein-Barr virus early antigens in Raji cells; type: cell-based, human; details: 48 hours
Experimental: Epstein-Barr virus genome inactivating test is carried out as the first-stage screening test of anti-carcinogenesis promoter. In this test, inhibition of virus genome incident with tetradecanoylphorbolacetate (hereinafter called “TPA”) as its promoter, in a culture system of Raji cells is used as an indicator. The mentioned Raji cells are culture cells originated in species of […] lymph and holds Epstein-Barr virus genome inside. This method is not only rapid and quantitative but also available for detection of active substances in a small quantity.

[2] = 85 nmol test substance on skin one hour prior to each TPA application
[3] = 10 Mol ratio/TPA (20 ng = 32 pmol/ml)
[4] = 100 Mol ratio/TPA (20 ng = 32 pmol/ml)
[5] = 500 Mol ratio/TPA (20 ng = 32 pmol/ml)
[6] = 1000 Mol ratio/TPA (20 ng = 32 pmol/ml)

Row | Compound | week after start of promotion on which the first tumor was formed (papilloma on mouse skin; [2]) | average number of tumors per mouse after 20 weeks (papilloma on mouse skin; [2]) | carcinogenesis inhibitory effects (versus positive control tumors per mouse) (papilloma on mouse skin) | % survival rate of Raji cells (Raji cells) | % inhibitory rate [1, 3] | % inhibitory rate [1, 4] | % inhibitory rate [1, 5] | % inhibitory rate [1, 6] | mice still free from tumor formation at the end of the 20-week experiment (papilloma on mouse skin; 85 nmol test substance on skin one hour prior to each TPA application, 20 weeks)
1 | CC1=C(/C=C/C(C)=C/C=C/C(C)=C/C=C/C=C(C)/C=C/C=C(C)/C=C/C(=O)[C@]2(C)C[C@@H](O)CC2(C)C)C(C)(C)C[C@H](O)C1 [Capsanthin, capsanthin] | 7 week | 7.2 | approximately 23% | 70% | 0% | 17.6% | 59.7% | 91.4% | 
2 | cucurbitaxanthin A-3′ esters [Cucurbitaxanthin-A-3′-ester] |  |  |  | 70% | 0% | 13.8% | 61.0% | 100% | 
3 | CC(/C=C/C=C(C)/C=C/C(=O)[C@]1(C)C[C@@H](O)CC1(C)C)=C\C=C\C=C(C)\C=C\C=C(C)\C=C\[C@@]12O[C@@H](CC1(C)C)C[C@@]2(C)O [Capsantlim 3,6-epoxide, capsanthin 3,6-epoxide] |  |  |  | 70% | 5.4% | 20.8% | 67.2% | 100% | 
4 | capsorubin diester |  |  |  | 70% | 7.2% | 28.0% | 73.9% | 100% | 
5 | CC1=C(/C=C/C(C)=C/C=C/C(C)=C/C=C/C=C(C)/C=C/C=C(C)/C=C/C2=C(C)CCCC2(C)C)C(C)(C)CCC1 [β-Carotene, reference compound] |  |  |  | 70% | 0% | 10.6% | 75.0% | 97.5% | 
6 | capsanthin diester | 9 week | 4.5 | ~45% | 70% | 9.6% | 30.7% | 75.5% | 100% | 13.3%
7 | capsorubin |  |  |  | 70% | 0% | 19.9% | 64.1% | 100% | 
8 | capsanthin monoester | 9 week | 6,5 | ~31% | 70% | 4.1% | 26.6% | 68.4% | 96.8% | 
